Reference: PubChem BioAssay (NCI)
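Each compound was tested at five concentrations against cells in 96-well plates for 48 hours. TGI denotes the concentration required for complete inhibition of growth.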

Experiments:
Assay in all cases: NCI tumour cell line growth inhibition, 48 h
OVCAR-4 ovarian = system: OVCAR-4 ovarian
LOX IMVI melanoma = system: LOX IMVI melanoma
MCF7 breast = system: MCF7 breast
NCI-H23 lung = system: NCI-H23 lung
ACHN renal = system: ACHN renal
CAKI-1 renal = system: CAKI-1 renal
MDA-MB-231 breast = system: MDA-MB-231 breast
MDA-MB-435 = system: MDA-MB-435
RXF 393 renal = system: RXF 393 renal
SK-MEL-2 melanoma = system: SK-MEL-2 melanoma

Row | SMILES | TGI (OVCAR-4 ovarian) | TGI (LOX IMVI melanoma) | TGI (MCF7 breast) | TGI (NCI-H23 lung) | TGI (ACHN renal) | TGI (CAKI-1 renal) | TGI (MDA-MB-231 breast) | TGI (MDA-MB-435) | TGI (RXF 393 renal) | TGI (SK-MEL-2 melanoma)
1 | FC(F)(F)c1ccc(Cc2nc3cc4ccccc4cc3[nH]2)cc1 | > 100 µM | > 100 µM | > 100 µM | > 100 µM | > 100 µM | > 100 µM | > 100 µM | > 100 µM | > 100 µM | > 100 µM
2 | Cc1ccc(S(=O)(=O)N2CCN(S(=O)(=O)c3ccc(C)cc3)CCN(S(=O)(=O)c3ccc(C)cc3)Cc3cc(C#N)c(C#N)cc3CN(S(=O)(=O)c3ccc(C)cc3)CC2)cc1 | > 100 µM | > 100 µM | > 100 µM | > 100 µM | > 100 µM | > 100 µM | > 100 µM | > 100 µM | > 100 µM | –
3 | O=[N+]([O-])c1ccc(-c2cc(O)c3nc4ccccc4n3c2)cc1 | > 100 µM | > 100 µM | > 100 µM | > 100 µM | > 100 µM | > 100 µM | > 100 µM | > 31.6 µM | > 100 µM | > 100 µM
4 | O=[N+]([O-])c1ccc2nc(Cl)n[n+]([O-])c2c1 | 26.8 µM | 5.23 µM | 20 µM | 36.6 µM | 27.2 µM | 30.1 µM | 28.3 µM | 26.9 µM | 28.7 µM | 29.2 µM
5 | O=C(NC(Cl)(C(F)(F)F)C(F)(F)F)c1ccc(F)cc1 | > 100 µM | > 100 µM | > 100 µM | > 100 µM | > 100 µM | > 100 µM | > 100 µM | > 100 µM | > 100 µM | > 100 µM
6 | CN(C)CCCC1c2ccccc2Oc2ccc(C(F)(F)F)cc21 (stereo not drawn) | 28.3 µM | 31.6 µM | 26.6 µM | 36.6 µM | 30.4 µM | 25.8 µM | 26 µM | 19.1 µM | 17.4 µM | 28.5 µM
7 | COc1cc(C(=O)/C=C/c2ccc(OCCSCCCCCCCCCCSCCOc3ccc(/C=C/C(=O)c4cc(OC)c(OC)c(OC)c4)cc3)cc2)cc(OC)c1OC | – | > 100 µM | > 100 µM | > 100 µM | > 100 µM | > 100 µM | > 100 µM | > 100 µM | > 100 µM | > 100 µM
8 | Cn1c2ccccc2n2c3ncccc3c(=NCCCC(=O)O)c(C#N)c12 | > 100 µM | > 100 µM | > 100 µM | > 100 µM | > 100 µM | > 100 µM | > 100 µM | > 100 µM | > 100 µM | > 100 µM
9 | CCCCCCCCCCCCCCCCCCNc1ccn(C2OC(COP(=O)(O)OCC3OC(n4cc(C)c(=O)[nH]c4=O)CC3F)C(O)C2O)c(=O)n1 (stereo not drawn) | 42.5 µM | 14.9 µM | > 64.5 µM | 17.9 µM | > 57.1 µM | 16.8 µM | 48.7 µM | 38.9 µM | 3.84 µM | 19.4 µM
10 | CC(C)C1OC(N)=C(C#N)C1(C#N)C#N (stereo not drawn) | – | > 100 µM | > 100 µM | > 100 µM | > 100 µM | 13.5 µM | > 100 µM | > 100 µM | > 100 µM | > 100 µM
11 | CC(=O)OCC(OC(C)=O)C(OC(C)=O)C(/C=N\Nc1nc2ccccc2c(=O)[nH]1)=N\Nc1nc2ccccc2c(=O)[nH]1 (stereo not drawn) | – | > 100 µM | > 100 µM | > 100 µM | > 100 µM | > 100 µM | > 100 µM | > 100 µM | > 100 µM | > 100 µM
12 | Cc1ccc(S(=O)(=O)CN2C(=O)C(c3ccccc3)(c3ccccc3)C23OC(c2ccc(Cl)cc2)=CC3=O)cc1 (stereo not drawn) | > 10 µM | > 10 µM | > 10 µM | > 10 µM | > 10 µM | > 10 µM | > 10 µM | > 10 µM | > 10 µM | > 10 µM
13 | C[Si](C)(C)C#Cc1cc(-c2nc3ccccc3s2)ccc1N | 29.8 µM | 34 µM | 12 µM | 40.6 µM | 29.1 µM | 31 µM | 38 µM | 34.1 µM | 32.8 µM | –
14 | S=C(NNC1=NCCCCN1)Nc1ccc(Cl)cc1 | > 100 µM | > 100 µM | > 100 µM | > 100 µM | 90.2 µM | 0.0151 µM | > 100 µM | > 100 µM | > 100 µM | > 100 µM
15 | COC(=O)c1c(C)cccc1C1CN=NC12Cc1ccccc1C2=O (stereo not drawn) | > 100 µM | > 100 µM | > 43.8 µM | > 100 µM | > 100 µM | > 100 µM | > 100 µM | > 100 µM | > 100 µM | > 100 µM
16 | OCc1cc2c(ccc3sc4ccc5sc6ccc7ncccc7c6c5c4c32)s1 | 89.2 µM | 26.6 µM | 42.2 µM | – | > 100 µM | 36.6 µM | 18.2 µM | > 100 µM | 28.9 µM | 31.3 µM
17 | CC(C)(C)c1cc(-c2cc(C(C)(C)C)[nH]n2)n[nH]1 | > 100 µM | > 100 µM | > 100 µM | > 100 µM | > 100 µM | > 100 µM | > 100 µM | > 100 µM | > 100 µM | > 100 µM
18 | O=C1NC(=S)N/C1=C\c1cc2c(=O)c3ccccc3sc2s1 | > 100 µM | > 100 µM | > 100 µM | > 100 µM | > 100 µM | > 100 µM | > 100 µM | > 100 µM | > 100 µM | > 100 µM
19 | NC(=O)C(=O)c1ncn(Cc2ccccc2)c1N | > 100 µM | > 100 µM | > 100 µM | > 100 µM | > 100 µM | > 100 µM | > 100 µM | > 100 µM | > 100 µM | > 100 µM
20 | N#CC(N)c1ccc(OCCCCCCCCCCOc2ccc(C(N)C#N)cc2)cc1 (stereo not drawn) | > 100 µM | > 100 µM | > 100 µM | > 100 µM | > 100 µM | > 100 µM | > 100 µM | > 100 µM | > 100 µM | > 100 µM
21 | Cc1ccc2c(=O)cc(Cc3cccs3)[nH]c2n1 | > 100 µM | > 100 µM | > 100 µM | > 100 µM | – | > 100 µM | > 100 µM | > 100 µM | > 100 µM | > 100 µM
